Common to all, as to type: cell-based
For one test, the target named is T1, human TLR8 (Homo sapiens, UniProt Q9NR97).
T1 construct: host or cells: HEK-Blue cells (HEK293-derived reporter line)
T1 sequence (Q9NR97 27-1041): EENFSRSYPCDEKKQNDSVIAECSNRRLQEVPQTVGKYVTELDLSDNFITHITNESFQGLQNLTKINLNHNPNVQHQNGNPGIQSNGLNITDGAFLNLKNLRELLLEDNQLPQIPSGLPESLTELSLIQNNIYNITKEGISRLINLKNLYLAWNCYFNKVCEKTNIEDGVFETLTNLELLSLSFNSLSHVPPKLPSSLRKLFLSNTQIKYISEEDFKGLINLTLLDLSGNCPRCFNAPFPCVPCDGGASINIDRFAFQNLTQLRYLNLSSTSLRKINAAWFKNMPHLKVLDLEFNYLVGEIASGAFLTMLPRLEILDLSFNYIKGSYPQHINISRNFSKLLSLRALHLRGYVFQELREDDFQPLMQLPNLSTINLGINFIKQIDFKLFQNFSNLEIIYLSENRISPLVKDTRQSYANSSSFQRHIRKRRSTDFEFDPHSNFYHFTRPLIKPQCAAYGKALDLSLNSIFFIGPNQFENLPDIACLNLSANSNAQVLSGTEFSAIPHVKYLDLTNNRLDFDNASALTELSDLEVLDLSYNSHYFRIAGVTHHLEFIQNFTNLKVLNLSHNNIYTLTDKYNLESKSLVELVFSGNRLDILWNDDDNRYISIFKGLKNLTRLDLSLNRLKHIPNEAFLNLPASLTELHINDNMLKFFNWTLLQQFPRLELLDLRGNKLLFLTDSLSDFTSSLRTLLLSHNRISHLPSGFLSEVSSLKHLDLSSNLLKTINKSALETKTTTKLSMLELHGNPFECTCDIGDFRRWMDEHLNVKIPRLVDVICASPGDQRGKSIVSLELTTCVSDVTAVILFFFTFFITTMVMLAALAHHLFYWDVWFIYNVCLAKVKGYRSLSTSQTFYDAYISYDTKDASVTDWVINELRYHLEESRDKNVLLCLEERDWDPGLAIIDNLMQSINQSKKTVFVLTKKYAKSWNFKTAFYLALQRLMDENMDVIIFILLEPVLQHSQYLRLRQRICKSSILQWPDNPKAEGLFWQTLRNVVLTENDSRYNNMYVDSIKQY
The test is described as follows: TLR8 inhibition reporter assay (HEK-Blue cells, SEAP reporter, R848 stimulation). Particulars: HEK-Blue cells overexpressing human TLR8, SEAP reporter, R848 15.9 μM. The gist of the method: (§1)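 After 22 h at 37 °C, SEAP secretion was measured from human TLR7-, TLR8- or TLR9-expressing HEK-Blue reporter cells given compound (0.05 nM–50 μM) 30 min before agonist: 7.5 μM gardiquimod, 15.9 μM R848 or 5 nM ODN2006 respectively. Percent inhibition referenced to agonist-plus-DMSO and known-inhibitor wells.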
For orientation: In a reporter assay the amount or activity of a reporter protein is the signal.

In the next test the target is T2, human TLR9 (Homo sapiens, UniProt Q9NR96).
T2 construct: host or cells: HEK-Blue cells (HEK293-derived reporter line)
T2 sequence (Q9NR96 26-1032): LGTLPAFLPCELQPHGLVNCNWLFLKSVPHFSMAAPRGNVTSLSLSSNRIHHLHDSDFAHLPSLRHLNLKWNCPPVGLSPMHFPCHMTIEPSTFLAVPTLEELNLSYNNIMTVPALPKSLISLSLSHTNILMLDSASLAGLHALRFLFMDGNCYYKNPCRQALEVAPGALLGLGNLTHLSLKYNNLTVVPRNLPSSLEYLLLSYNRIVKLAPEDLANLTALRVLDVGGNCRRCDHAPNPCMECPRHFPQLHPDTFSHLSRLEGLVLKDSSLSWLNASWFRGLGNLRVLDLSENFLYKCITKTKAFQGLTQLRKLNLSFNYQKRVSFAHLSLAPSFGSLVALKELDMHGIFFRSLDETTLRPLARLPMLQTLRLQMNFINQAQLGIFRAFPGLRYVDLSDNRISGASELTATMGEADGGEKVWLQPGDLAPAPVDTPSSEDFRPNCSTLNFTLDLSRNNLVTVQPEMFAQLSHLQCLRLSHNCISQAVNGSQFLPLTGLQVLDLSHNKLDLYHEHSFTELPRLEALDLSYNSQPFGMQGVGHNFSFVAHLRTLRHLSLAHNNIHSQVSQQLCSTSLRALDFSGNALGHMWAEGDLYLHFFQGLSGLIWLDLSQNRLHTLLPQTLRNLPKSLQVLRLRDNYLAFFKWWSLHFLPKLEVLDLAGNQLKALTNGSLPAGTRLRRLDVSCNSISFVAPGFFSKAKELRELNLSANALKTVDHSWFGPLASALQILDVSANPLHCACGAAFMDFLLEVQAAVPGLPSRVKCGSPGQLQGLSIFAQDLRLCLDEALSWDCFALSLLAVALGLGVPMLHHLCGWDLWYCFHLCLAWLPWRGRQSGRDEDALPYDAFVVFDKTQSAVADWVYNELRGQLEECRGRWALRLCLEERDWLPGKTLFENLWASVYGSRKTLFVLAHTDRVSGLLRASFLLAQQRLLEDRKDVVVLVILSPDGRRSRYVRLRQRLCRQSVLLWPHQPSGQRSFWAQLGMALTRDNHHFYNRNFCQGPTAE
The test is described as follows: TLR9 inhibition reporter assay (HEK-Blue cells, SEAP reporter, ODN2006 stimulation). The settings on record: HEK-Blue cells overexpressing human TLR9, SEAP reporter, ODN2006 5 nM. The gist of the method: as §1

Another test concerns the target T3, human TLR7 (Homo sapiens, UniProt Q9NYK1).
T3 construct: host or cells: HEK-Blue cells (HEK293-derived reporter line)
T3 sequence (Q9NYK1 27-1049): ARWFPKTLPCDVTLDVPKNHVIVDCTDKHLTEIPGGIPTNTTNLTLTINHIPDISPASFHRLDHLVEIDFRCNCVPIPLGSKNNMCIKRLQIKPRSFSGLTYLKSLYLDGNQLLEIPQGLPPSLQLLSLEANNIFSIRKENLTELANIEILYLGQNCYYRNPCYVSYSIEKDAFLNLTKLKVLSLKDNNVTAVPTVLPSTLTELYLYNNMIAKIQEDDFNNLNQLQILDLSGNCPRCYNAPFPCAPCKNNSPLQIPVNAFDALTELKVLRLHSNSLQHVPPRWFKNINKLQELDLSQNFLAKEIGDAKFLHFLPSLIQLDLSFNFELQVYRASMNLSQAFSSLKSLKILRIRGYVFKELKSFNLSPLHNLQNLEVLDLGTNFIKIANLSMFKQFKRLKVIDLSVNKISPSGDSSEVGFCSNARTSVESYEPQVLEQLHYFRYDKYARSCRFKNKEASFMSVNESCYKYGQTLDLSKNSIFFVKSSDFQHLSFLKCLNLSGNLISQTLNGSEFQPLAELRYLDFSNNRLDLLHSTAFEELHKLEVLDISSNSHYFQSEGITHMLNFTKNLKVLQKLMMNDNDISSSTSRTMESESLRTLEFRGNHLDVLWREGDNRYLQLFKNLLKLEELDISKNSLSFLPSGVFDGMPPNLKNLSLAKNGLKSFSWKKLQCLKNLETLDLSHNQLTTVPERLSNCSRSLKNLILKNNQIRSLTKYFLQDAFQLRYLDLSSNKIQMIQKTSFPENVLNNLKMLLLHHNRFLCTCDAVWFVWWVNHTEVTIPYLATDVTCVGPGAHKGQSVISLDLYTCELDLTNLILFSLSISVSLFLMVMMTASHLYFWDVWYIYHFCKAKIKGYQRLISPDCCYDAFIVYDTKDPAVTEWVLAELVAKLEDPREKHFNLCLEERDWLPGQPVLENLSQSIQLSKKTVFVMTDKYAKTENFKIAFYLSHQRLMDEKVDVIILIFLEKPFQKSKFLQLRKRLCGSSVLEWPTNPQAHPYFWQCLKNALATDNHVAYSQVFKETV
As to the kind of experiment: TLR7 inhibition reporter assay (HEK-Blue cells, SEAP reporter, gardiquimod stimulation). Particulars: HEK-Blue cells overexpressing human TLR7, SEAP reporter, gardiquimod 7.5 μM. The gist of the method: as §1

Each structure is given as a SMILES string. Bounds are passed on as bounds.

The IC50 is the point on the concentration scale where inhibition reaches its midpoint. A high value points to lower potency. Take `Cc1cc(-c2[nH]c3ccc(C4CCN(CC(=O)N(C)C)CC4)cc3c2C(C)C)cn2ccnc12` [Example 398, 2-(4-(3-isopropyl-2-(8-methylimidazo[1,2-a]pyridin-6-yl)-1H-indol-5-yl)piperidin-1-yl)-N,N-dimethylacetamide]: the IC50 is less than 100 nM against human TLR8, 100 to 1000 nM against human TLR9 and less than 100 nM at human TLR7.
With `CCc1c(-c2ccnc3[nH]ncc23)[nH]c2ccc(C3CCN(Cc4csc(C(C)C)n4)CC3)cc12` [Example 859, 4-((4-(3-ethyl-2-(1H-pyrazolo[3,4-b]pyridin-4-yl)-1H-indol-5-yl)piperidin-1-yl)methyl)-2-isopropylthiazole], the IC50 was in the range of 100 to 1000 nM at human TLR8, 1000 to 50000 nM against human TLR9 and 100 to 1000 nM against human TLR7.
As to `Cc1cc(-c2[nH]c3ccc(C4CCN(C(=O)CCN5CCOCC5)CC4)cc3c2C(C)C)cn2nnnc12` [Example 627, 1-(4-(3-isopropyl-2-(8-methyltetrazolo[1,5-a]pyridin-6-yl)-1H-indol-5-yl)piperidin-1-yl)-3-morpholinopropan-1-one], the IC50 against human TLR8 is less than 100 nM; on human TLR9 it was 1000 to 50000 nM; at human TLR7, less than 100 nM.
As to `CC(CN(C)C)CN1CCC(c2ccc3[nH]c(-c4ccnc5[nH]ncc45)c(C(C)C)c3c2)CC1` (stereo not drawn) [Example 846, 3-(4-(3-isopropyl-2-(1H-pyrazolo[3,4-b]pyridin-4-yl)-1H-indol-5-yl)piperidin-1-yl)-N,N,2-trimethylpropan-1-amine], the IC50 at human TLR8 was less than 100 nM; against human TLR9 it was 100 to 1000 nM; against human TLR7, less than 100 nM.
As to `Cc1nc2cc(-c3[nH]c4ccc(C5CCN(C(=O)CN(C)C)CC5)cc4c3C(C)C)cc(C)c2o1` [Example 491, 2-(dimethylamino)-1-(4-(2-(2,7-dimethylbenzo[d]oxazol-5-yl)-3-isopropyl-1H-indol-5-yl)piperidin-1-yl)ethan-1-one], the IC50 against human TLR8 is 1000 to 50000 nM; on human TLR9, 1000 to 50000 nM; on human TLR7 it was 100 to 1000 nM.
Take `CC(=O)N1CCC(N2CCC(c3ccc4[nH]c(-c5ccnc6[nH]ncc56)c(C(C)C)c4c3)CC2)CC1` [Example 823, 1-(4-(3-isopropyl-2-(1H-pyrazolo[3,4-b]pyridin-4-yl)-1H-indol-5-yl)-[1,4′-bipiperidin]-1′-yl)ethan-1-one]: the IC50 against human TLR8 was less than 100 nM; against human TLR9, 1000 to 50000 nM; at human TLR7, less than 100 nM.
For `Cc1nc2c(C)cc(-c3[nH]c4ccc(C5CCN(CC(=O)N(C)C)CC5)cc4c3C(C)C)cn2c1C` [Example 396, 2-(4-(3-isopropyl-2-(2,3,8-trimethylimidazo[1,2-a]pyridin-6-yl)-1H-indol-5-yl)piperidin-1-yl)-N,N-dimethylacetamide], the results for the IC50 at human TLR8, against human TLR9 and at human TLR7 were 100 to 1000 nM, 100 to 1000 nM and less than 100 nM, respectively.
Turning to `CC(C)c1c(-c2ccn3nccc3n2)[nH]c2ccc(C3CCNCC3)cc12` [Example 193, 5-(3-isopropyl-5-(piperidin-4-yl)-1H-indol-2-yl)pyrazolo[1,5-a]pyrimidine], the values for the concentration for half-maximal inhibition (IC50) on human TLR8, against human TLR9 and against human TLR7 were 100 to 1000 nM, 1000 to 50000 nM and 100 to 1000 nM, respectively.
In the case of `Cc1nc2cc(-c3[nH]c4ccc(C5CCNCC5)cc4c3C(C)C)ccn2n1` [Example 156, 7-(3-isopropyl-5-(piperidin-4-yl)-1H-indol-2-yl)-2-methyl-[1,2,4] triazolo[1,5-a]pyridine], the 50% inhibitory concentration (IC50) is 100 to 1000 nM against human TLR8, 100 to 1000 nM against human TLR9 and less than 100 nM against human TLR7.
With `CCc1c(-c2ccnc3[nH]cc(Cl)c23)[nH]c2ccc(C3CCN(C4CCN(C(C)C)CC4)CC3)cc12` [Example 842, 3-chloro-4-(3-ethyl-5-(1′-isopropyl-[1,4′-bipiperidin]-4-yl)-1H-indol-2-yl)-1H-pyrrolo[2,3-b]pyridine], the IC50 was less than 100 nM against human TLR8, 100 to 1000 nM against human TLR9 and 100 to 1000 nM at human TLR7.
For the compound `Cc1nc2cc(-c3[nH]c4ccc(C5CCN(C6COC6)CC5)cc4c3C(C)C)ccn2n1` [Example 728, 7-(3-isopropyl-5-(1-(oxetan-3-yl)piperidin-4-yl)-1H-indol-2-yl)-2-methyl-[1,2,4]triazolo[1,5-a]pyridine], the half-maximal inhibitory concentration (IC50) is 1000 to 50000 nM against human TLR8, 1000 to 50000 nM on human TLR9 and less than 100 nM against human TLR7.
With `CCc1c(-c2cnc3cnccn23)[nH]c2ccc(C3CCNCC3)cc12` [Example 28, 3-(3-ethyl-5-(piperidin-4-yl)-1H-indol-2-yl)imidazo[1,2-a]pyrazine], the figures for the half-inhibitory concentration (IC50) against human TLR8, at human TLR9 and at human TLR7 were 1000 to 50000 nM, 100 to 1000 nM and 1000 to 50000 nM, respectively.
For the compound `Cc1c(-c2[nH]c3ccc(C4CCN(CC(=O)N(C)C)CC4)cc3c2C(C)C)nn2ncnc2c1C` [Example 280, 2-(4-(2-(7,8-dimethyl-[1,2,4]triazolo[1,5-b]pyridazin-6-yl)-3-isopropyl-1H-indol-5-yl)piperidin-1-yl)-N,N-dimethylacetamide], the IC50 was less than 100 nM on human TLR8, 1000 to 50000 nM against human TLR9 and less than 100 nM against human TLR7.
